Experimental data from patent US8383666B2, “Pyrrole derivatives, preparation of same and therapeutic application thereof” (Sanofi, priority 2008, dated 2013).

Assays:
[1] = target: T1, CB1 receptors present in the brain (Mus musculus, UniProt P47746); test: Measurement (3): blocking of the hypothermic effect induced by CP55940; assay type: in vivo; parameters: [CB1 receptors present; from tissue; host or cells: living animal, brain CB1 receptors; conditions: iv at 10 mg/kg
Excerpt: (§1) Preferably, this percentage is less than 40%, and more preferably less than 30%.

[2] = target: T1, CB1 receptors present in the brain; test: Measurement (2): ex vivo binding of [3H]-CP55940 in the brain after intravenous administration; parameters: the CB1 receptors present in the brain in mice; from tissue; host or cells: mouse brain (after intravenous dosing); conditions: iv at 10 mg/kg, mice, read-out: % inhibition of [3H]-CP55940 binding at the level of the brain
Excerpt: as §1

[3] = Measurement (1): quantification of compound in brain and plasma by LC-MS/MS; assay type: in vivo; conditions: iv at 3 mg/kg, according to measurement (1), mouse, read-out: Ratio: Amount present in the brain/Amount present in the plasma
Excerpt: as §1

[4] = target: T2, CB1 receptors present at the periphery (Mus musculus, UniProt P47746); test: blocking of the inhibitory effect of CP55940 on gastrointestinal transit; assay type: in vivo; conditions: per os at 10 mg/kg, mice
T2 construct: from tissue; host or cells: living mouse, peripheral (gastrointestinal) CB1 receptors
T2 sequence (P47746 whole entry): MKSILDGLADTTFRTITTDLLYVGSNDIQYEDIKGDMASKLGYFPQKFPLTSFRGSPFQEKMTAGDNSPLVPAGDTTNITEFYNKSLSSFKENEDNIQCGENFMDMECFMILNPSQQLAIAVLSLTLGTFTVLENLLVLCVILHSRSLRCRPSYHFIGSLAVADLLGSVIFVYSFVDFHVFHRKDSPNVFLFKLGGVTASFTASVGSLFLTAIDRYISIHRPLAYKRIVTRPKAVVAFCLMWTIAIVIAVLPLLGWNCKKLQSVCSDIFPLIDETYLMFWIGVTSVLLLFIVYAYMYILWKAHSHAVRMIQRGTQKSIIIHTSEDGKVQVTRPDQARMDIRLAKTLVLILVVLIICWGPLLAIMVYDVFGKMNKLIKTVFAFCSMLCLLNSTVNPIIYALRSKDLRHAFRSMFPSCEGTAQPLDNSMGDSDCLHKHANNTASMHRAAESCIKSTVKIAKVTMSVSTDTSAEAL

T1 sequence (P47746 whole entry): as above

Row | SMILES | % reversion of the hypothermic effect of CP55940 [1] | inhibition at 10 mg/kg [2] | Kp [3] | % reversion of the effect of CP55940 on GI transit [4]
1 | Cn1c(C(=O)N2CCC(NCc3cccc(F)c3)(C(N)=O)CC2)cc(-c2ccc(Cl)cc2Cl)c1-c1ccc(OCCCO)cc1 [Compound 11, 1-[4-(2,4-dichlorophenyl)-5-[4-(3-hydroxypropoxy)phenyl]-1-methyl-1H-pyrrole-2-carbonyl]-4-(3-fluorobenzylamino)piperidine-4-carboxamide] | 64% | 25% | – | –
2 | Cn1c(C(=O)N2CCC(C(N)=O)(c3ccccc3)CC2)cc(-c2ccc(Cl)cc2Cl)c1-c1ccc(OCC(N)=O)cc1 [Compound 16, 1-[5-(4-carbamoylmethoxy)phenyl-4-(2,4-dichlorophenyl)-1-methyl-1H-pyrrole-2-carbonyl]-4-phenylpiperidine-4-carboxamide] | 3% | 8% | 0.05 | 76%
3 | Cn1c(C(=O)N2CCC(NCc3ccc(F)cc3)(C(N)=O)CC2)cc(-c2ccccc2Cl)c1-c1ccc(OCCCO)cc1 [Compound 24, 1-[4-(2-chlorophenyl)-5-[4-(3-hydroxypropoxy)phenyl]-1-methyl-1H-pyrrole-2-carbonyl]-4-(4-fluorobenzylamino)piperidine-4-carboxamide] | 20% | 1% | – | 100%
